Reference: patent US9700499B2, “Antimicrobial compositions” (GIVAUDAN SA, priority 2005, dated 2017)
“Also recorded” adds a separate entry of the source.

Experiments:
Type in all cases: cell-based
[1] = tested on: Aspergillus niger ATCC 16404 spores; test: Sporicidal effect of test compounds and preservatives in a cosmetic cream; settings: for Enhancing effect in the cosmetic cream in presence of phenoxyethanol: 0.2% test compound with phenoxyethanol; for Enhancing activity in cream: 0.1% test compound with phenoxyethanol, complete killing of spores within 7 days
Description: A cosmetic cream (pH 5.5) for application to the human skin is formulated as follows (in % w/w): […]
Glyceryl-monostearate, Sweet almond oil, Cetyl-stearyl-alcohol and Glyceryl dilaurate are melted at 80° C. Xanthan gum is dispersed into glycerine. Arginine is dissolved in water and heated to 75° C. The Xanthan gum-glycerin suspension is added to the heated water phase, the heated oil phase is added and the suspension is stirred at 300 rpm for 10 min whilst being cooled down slowly. Finally, a homogeneous emulsion is made with a high speed homogenizer at 5000 rpm.
Test samples of cream contain different amounts of preservatives and/or preservative enhancer. The preservative and preservative enhancer is added to an aliquot of 10 g of the cream in 50 ml tubes to a concentration (w/w) of 0.1-0.5% as shown in the table below. After addition of the preservative/preservative enhancer, the cream is thoroughly mixed to achieve a homogeneous distribution.
After 1-3 days of equilibration of the cream (storage at room temperature to achieve a homogenous partitioning of compounds between oil and water phase), to each sample 100 μl of a spore suspension of Aspergillus niger ATCC 16404 containing 3×10^7 spores/ml (prepared as described in example 1) is added. After regular test intervals, samples of 1 g cream are removed and added to 20 ml of a neutralizer solution containing 0.2% lecithin, 2% Tween 80 and 0.5% NaCl. These dilutions are vigorously shaken for 10 min until the cream is dissolved, and then aliquots of this solution are spread plated on potato dextrose agar containing 0.2% Tween 80. After 48 h to 72 h the number of surviving colony forming units (and therefore surviving spores) are counted.
The sporidical effect in cream (prepared as described in example 2) is compared when using the test compounds alone or in combination with phenoxyethanol, benzyl alcohol or 2-Phenylethanol.
The experiments described in example 2-4 are performed with varying concentrations of test compound and preservative as indicated in Table 5.

[2] = tested on: Aspergillus niger ATCC 16404 spores; test: Sporicidal effect of test compounds in water; settings: for Reduction factor / Spores/ml: 0.1% test compound in water; for Reduction factor: after 7 days, count of negative control divided by count of test compound; for Spores/ml: spore count after 7 days; for Sporicidal effect (reduction of spore counts) in water: test compound alone in water at 0.1%
Description: Aspergillus niger ATCC 16404 spores are added to water to obtain a density of 3×10^5 spores/ml. In order to prepare the spores, the test strain is grown for 5 days on potato dextrose agar at room temperature. The spores are harvested with a solution containing 0.1% Tween 80, peptone 0.1% and NaCl 0.85% and the spore concentration is adjusted to the density indicated above.
Test compounds are dissolved in dipropyleneglycol to a concentration of 20%.
These stock solutions are added to 10 ml aliquots of the spore suspension to obtain a final concentration of the test compounds of 0.1%. The sporicidal effect is shown by a reduction of spore counts after 7 days.
The reduction factor is determined as follows. Aliquots of the above prepared suspension of microorganisms (here: spore suspension prepared as described above) are plated on a suitable agar medium (see above) and the developing colonies are counted both for samples with test compound and for a negative probe (water). The count of the negative control is divided by the count of the test compound and thereby the reduction factor is determined. A negative control (water) accordingly has a reduction factor of 1 (no effect on the microorganism).

[3] = tested on: Candida albicans ATCC 10231, Candida guilliermondii ATCC 6260 and Candida parapsilosis ATCC 22019; test: Activity against yeasts in cosmetic cream (mixture of three yeast strains 1:1:1)
Description: The same procedure as described above except for the changes mentioned below is performed with a mixture of the three yeast strains Candida albicans ATCC 10231, Candida guilliermondii ATCC 6260 and Candida parapsilosis ATCC 22019 that replace the bacterial strains.
The yeast strains are grown in Sabouraud liquid medium, washed and suspended in saline and adjusted to 5×10^7 cfu (colony forming units) per ml. The Inoculum of the three strains is then pooled in a ratio of 1:1:1. For determining the reduction factor by counting of the colonies formed, the samples inoculated with the yeast strains are spread plated on potato dextrose, incubated until colonies have formed and counted.

[4] = tested on: Staphylococcus aureus (DSMZ 799) and Pseudomonas aeruginosa (ATCC 15442); test: Activity against bacteria in cosmetic cream (mixed inoculum 1:1)
Description: As test organisms Staphylococcus aureus (DSMZ 799) and Pseudomonas aeruginosa (ATCC 15442) are used. The strains are grown overnight in Mueller-Hinton broth and adjusted to a cell density of 1×10^8 cfu (colony forming units) per ml.
The two bacterial strains are mixed in a ratio of 1:1 and 100 μl of this mixed inoculum is added to 10 ml aliquots of the cosmetic cream supplemented with test compounds as described in Example 2 in the concentration as indicated in the table below.
The resulting mixtures are incubated at room temperature and at the regular intervals samples are removed, suspended in neutralizer solution and diluted as described above (example 2).
Aliquots of these suspended and diluted samples are plated on tryptic soy agar supplemented with 0.5% Tween 80 and then incubated for 24 h at 37° C. Surviving bacteria are counted.

[5] = test compound (0.1% where given) with Phenoxyethanol 0.5% (Table 3)
[6] = test compound (0.1% where given) with Phenoxyethanol 0.5%, 7 d (Table 3)
[7] = test compound alone (0.1% where given), no preservative (Table 3)
[8] = test compound alone (0.1% where given), no preservative, 7 d (Table 3)
[9] = 0.1% test compound and 0.5% phenoxyethanol (Table 2)
[10] = 0.1% test compound and 0.5% phenoxyethanol, 7 d (Table 2)
[11] = 0.2% test compound and 0.5% phenoxyethanol (Table 2)
[12] = 0.2% test compound and 0.5% phenoxyethanol, 7 d (Table 2)
[13] = test compound 0.1% alone, no preservative
[14] = test compound 0.1% with 2-Phenylethanol 0.5%
[15] = test compound 0.1% with Phenoxyethanol 0.5%

COc1cc(O)ccc1C=O [4-hydroxy-2-methoxy-benzaldehyde]
Spores/ml after 7 d [1, 5]: <100 Spores/ml
Reduction factor [1, 6]: >1040
Spores/ml after 7 d [1, 7]: 2.08 × 10^4 Spores/ml
Reduction factor [1, 8]: 5

O=Cc1ccc2c(c1)OCO2 [Heliotropine]
Spores/ml after 7 d [1, 9]: <100 Spores/ml
Reduction factor [1, 10]: >737

CC(CC=O)CCc1ccccc1 (centres unmarked) [Mefranal, 3-methyl-5-phenylpentanal, reference compound]
Spores/ml after 7 d [1, 11]: 3.12 × 10^4 Spores/ml
Reduction factor [1, 12]: 1.6
Enhancing effect in the cosmetic cream in presence of phenoxyethanol [1]: do not show an enhancing effect
Reduction factor [2]: 63
Spores/ml [2]: 4 × 10^3 Spores/ml
Sporicidal effect (reduction of spore counts) in water [2]: significant sporicidal effect

COc1cccc(C=O)c1 [3-methoxybenzaldehyde]
Spores/ml after 7 d [1, 9]: <100 Spores/ml
Reduction factor [1, 10]: >737

Cc1ccc(C=O)cc1 [4-methylbenzaldehyde]
Spores/ml after 7 d [1, 9]: <100 Spores/ml
Reduction factor [1, 10]: >737

O=Cc1cccc(O)c1 [3-hydroxybenzaldehyde]
Spores/ml after 7 d [1, 9]: <100 Spores/ml
Reduction factor [1, 10]: >737

OCCc1ccccc1 [2-Phenylethanol, reference compound]
Spores/ml after 7 d ([1]; preservative 0.5% alone, no test compound (Table 3)): 4.2 × 10^4 Spores/ml
Reduction factor ([1]; preservative 0.5% alone, no test compound, 7 d (Table 3)): 2.5

O=Cc1cc(O)cc(O)c1 [3,5-dihydroxybenzaldehyde]
Spores/ml after 7 d [1, 5]: <100 Spores/ml
Reduction factor [1, 6]: >1040
Spores/ml after 7 d [1, 7]: 1 × 10^4 Spores/ml
Reduction factor [1, 8]: 10

COc1cc(C=O)ccc1O [Vanilline]
Spores/ml after 7 d [1, 9]: <100 Spores/ml
Reduction factor [1, 10]: >737
Spores/ml after 7 d [1, 5]: <100 Spores/ml
Reduction factor [1, 6]: >1040
Spores/ml after 7 d [1, 7]: 1 × 10^4 Spores/ml
Reduction factor [1, 8]: 10.4

COc1ccc(C=O)cc1 [4-methoxybenzaldehyde]
Spores/ml after 7 d [1, 9]: <100 Spores/ml
Reduction factor [1, 10]: >737
Enhancing activity in cream [1]: excellent enhancing activity
Spores/ml after 7 d [1, 11]: <100 Spores/ml
Reduction factor [1, 12]: >737
Spores/ml after 7 d [1, 5]: <100 Spores/ml
Reduction factor [1, 6]: >1040
Spores/ml after 7 d [1, 7]: 2.8 × 10^3 Spores/ml
Reduction factor [1, 8]: 37.1
Reduction factor [2]: 5
Spores/ml [2]: 4.68 × 10^4 Spores/ml
Sporicidal effect (reduction of spore counts) in water [2]: No significant reduction of spore counts
Sporicidal effect (reduction of spore counts) in water ([2]; listed as 4-methoxy-benzaldehyde): no significant sporicidal effect

CC(C)c1ccc(CO)cc1 [Cuminic alcohol, reference compound]
Reduction factor [2]: <2
Spores/ml [2]: >1.2 × 10^5 Spores/ml

O=Cc1ccccc1 [Benzaldehyde, reference compound]
Spores/ml after 7 d [1, 9]: <100 Spores/ml
Reduction factor [1, 10]: >737

O=Cc1ccc(O)cc1 [4-hydroxybenzaldehyde]
Yeasts (cfu/g cream) 48 h [3, 13]: 7.4 × 10^3 cfu/g cream
Yeasts (cfu/g cream) 7 d [3, 13]: 2.2 × 10^5 cfu/g cream
Yeasts (cfu/g cream) 48 h [3, 14]: <200 cfu/g cream
Yeasts (cfu/g cream) 7 d [3, 14]: <200 cfu/g cream
Yeasts (cfu/g cream) 48 h [3, 15]: <200 cfu/g cream
Yeasts (cfu/g cream) 7 d [3, 15]: <200 cfu/g cream
Spores/ml after 7 d [1, 9]: <100 Spores/ml
Reduction factor [1, 10]: >737
Enhancing activity in cream [1]: excellent enhancing activity
Reduction factor A. niger, 7 d ([1]; test compound 0.05% w/w with preservative (phenoxyethanol) 0.5% w/w (Table 5)): 66
Reduction factor A. niger, 7 d ([1]; test compound 0.1% w/w with preservative (phenoxyethanol) 0.3% w/w (Table 5)): 295
Reduction factor A. niger, 7 d ([1]; test compound 0.1% w/w with preservative (phenoxyethanol) 0.5% w/w (Table 5)): >1180
Reduction factor A. niger, 7 d ([1]; test compound 0.1% w/w, preservative 0 (Table 5)): 2
Spores/ml after 7 d ([1]; test compound 0.1% with 2-Phenylethanol 0.25% + benzylalcohol 0.25%): <100 Spores/ml
Reduction factor ([1]; test compound 0.1% with 2-Phenylethanol 0.25% + benzylalcohol 0.25%, 7 d): >1040
Spores/ml after 7 d [1, 14]: <100 Spores/ml
Spores/ml after 7 d ([1]; test compound 0.1% with 2-Phenylethanol 0.5% + benzylalcohol 0.5%): <100 Spores/ml
Reduction factor ([1]; test compound 0.1% with 2-Phenylethanol 0.5% + benzylalcohol 0.5%, 7 d): >1040
Reduction factor ([1]; test compound 0.1% with 2-Phenylethanol 0.5%, 7 d): >1040
Spores/ml after 7 d [1, 5]: <100 Spores/ml
Reduction factor [1, 6]: >1040
Spores/ml after 7 d [1, 7]: 1.0 × 10^5 Spores/ml
Reduction factor [1, 8]: 1.04
Enhancing effect of the test compound in presence of the preservative compound (phenoxyethanol) ([1]; varying concentrations (Table 5)): enhancing effect
Reduction factor [2]: <2
Spores/ml [2]: >1.2 × 10^5 Spores/ml
Sporicidal effect (reduction of spore counts) in water [2]: no significant sporicidal effect; also recorded: No significant reduction of spore counts
Bacteria (cfu/g cream) 24 h [4, 13]: 3.8 × 10^3 cfu/g cream
Bacteria (cfu/g cream) 7 d [4, 13]: 1.28 × 10^4 cfu/g cream
Bacteria (cfu/g cream) 24 h [4, 14]: 1 × 10^3 cfu/g cream
Bacteria (cfu/g cream) 7 d [4, 14]: <200 cfu/g cream
Bacteria (cfu/g cream) 24 h [4, 15]: 1.9 × 10^4 cfu/g cream
Bacteria (cfu/g cream) 7 d [4, 15]: <200 cfu/g cream

C=CCCCCCCCCO [9-decen-1-ol, reference compound]
Spores/ml after 7 d [1, 11]: 2.44 × 10^4 Spores/ml
Reduction factor [1, 12]: 2.1
Enhancing effect in the cosmetic cream in presence of phenoxyethanol [1]: do not show an enhancing effect
Reduction factor [2]: 23
Spores/ml [2]: 1.1 × 10^4 Spores/ml
Sporicidal effect (reduction of spore counts) in water [2]: significant sporicidal effect
